Measurements reported in PMC12970513, “Unsaturated Phosphorus Electrophiles to Probe Protein Tyrosine Phosphatases” (Angewandte Chemie (International Ed. in English), 2026).

Experiments:
[1] = Thiol reactivity with glutathione (UPLC-UV/MS); conditions: 1 mM compound, 10 mM GSH (10 equivalents), 25°C / room temperature, 16 h, caffeine (peptides) or TPPO (SM) internal standard, n = 3; for consumption of starting material to glutathione adduct, pH 7.4: Tris pH 7.4, 10% DMSO; for consumption of starting material to glutathione adduct, pH 8.5: Tris pH 8.5, 10% DMSO
Method: After verifying the stability of the phosphonamidic and phosphonic acid warheads at physiological and slightly basic pH, we aimed to investigate the reactivity towards endogenous thiol concentrations. For this, 1 mM bio‐PN or bio‐PO and 1 mM caffeine as an internal standard, as well as 1 mM SM‐PN or SM‐PO and 1 mM TPPO (internal standard), were incubated at room temperature with 10 equivalents (10 mM) glutathione (GSH), and the outcome was followed by UPLC‐MS (Figure S4).
FIGURE 3 Time‐dependent decay of bio‐PN, bio‐PO, SM‐PN, and SM‐PO (1 mM) in the presence of 10 mM GSH with 1 mM caffeine or TPPO as internal standard. The assay was performed at 25°C in Tris buffer (10% DMSO) at (a) pH 7.4, (b) pH 8.5. Results are presented as mean ± standard deviation (n = 3). (c) Labeling conditions to assess by ESI‐MS the ability of bio‐PN, bio‐PO, SM‐PN, and SM‐PO to covalently bind recombinant PTP1B. Stacked deconvoluted MS spectra of the initial time point (t0) of PTP1B labeling with (d) bio‐PO after 4 h: full labeling, (e) bio‐PN after 20 h: ∼80% labeling, (f) SM‐PO after 20 h: no labeling, (g) SM‐PN after 20 h: no labeling.
Figure S4: Monitoring of thiol reactivity with GSH as a model thiol of peptide and small molecule phosphonamidic and phosphonic acids by UPLC-UV/MS. a) Reaction conditions for bio-PN and bio-PO. b) Exemplary UV chromatograms of bio-PO at pH 8.5 and at 0 and 16 hours, highlighting the internal standard (caffeine) and the compound. c) Reaction conditions for SM-PN and SM-PO. d) Exemplary UV chrommatogramms of SM-PN at pH 8.5 and at 0 and 16 hours, highlighting the internal standard (TPPO) and the compound. All experiments were prepared in triplicates. [picture]
For testing the thiol reactivity of bio-PN and bio-PO at pH 7.4, 10 µL of a 10 mM caffeine (internal standard) stock solution in Tris buffer pH 7.4 (final concentration 1 mM) and 10 µL of a 10 mM peptide stock solution in DMSO were added in 75 µL of 50 mM Tris buffer, pH 7.4. Immediately prior to the measurement, 5 µL of a 200 mM stock solution of reduced glutathione (final concentration 10 mM, 10.0 eq.) in Tris buffer (pH adjusted to 7.4) were added. The solutions were transferred to a sample vial and measured by UPLC-UV/MS at room temperature and at time points t0, t0.5h, t1h, t2h, t4h, t8h, t16h 1 µL of the reaction mixture was injected. For the analysis, the peak area of the internal standard was correlated with that of the starting material. The same protocol was followed at pH 8.5 using Tris buffer adjusted accordingly.
Similar conditions were applied in the case of SM-PN and SM-PO. […]

[2] = Stability of SM-PN and SM-PO in aqueous buffer by 31P NMR; assay type: physicochemical; conditions: room temperature
Method: Next, we assessed the stability of the phosphonamidic and phosphonic acid in aqueous buffers at pH 2, pH 3.5, pH 7.4, pH 8.5, and pH 11. Therefore, SM‐PN and SM‐PO were added in the corresponding buffers and monitored for 48 h at room temperature via ^31P‐NMR with triphenylphosphinoxide (TPPO) as an internal standard (Figure S2). […] Furthermore, we evaluated the stability of the peptide probes bio‐PN and bio‐PO in human lysate for subsequent experiments. These peptides were added in HEK293T cell lysate, and changes in stability were recorded for 18 h via ^31P‐NMR, in which inorganic phosphate served as an internal standard. […] Nonetheless, both peptides display sufficient stability for follow‐up studies.
Figure S2: pH dependent stability of phosphonamidic and phosphonic acids at room temperature monitored by ^31P NMR. a) Decay of starting material SM-PN. […] At pH 2.0 the compound was already hydrolyzed in minutes before the next measurement. b) Decay of SM-PO in identical conditions.
Internal standard triphenylphosphine oxide (TPPO, 12 µL of a 100 mM stock in DMSO, final concentration 2 mM) and SM-PN or SM-PO (36 µL of a 50 mM stock in DMSO, final concentration 3 mM) were added in microcentrifuge tubes containing 552 µL of each test buffer solution (0.1% TFA pH 2, 50 mM NaOAc pH 3.5, 50 mM Tris pH 7.4, 50 mM Tris pH 8.5, 50 mM TEAB pH 11.0, containing 10% D2O (492 μL buffer and 60 μL D2O) and mixed right before the measurement. The mixtures were transferred to NMR tubes and one-dimensional ^31P-NMR spectra were recorded for each sample at room temperature, in intervals of 4 h over the course of 48 h on a Bruker AV-III 600 or AV-III 300 spectrometer. For analysis, the spectra were plotted in MestReNova and the intensity of the ^31P-NMR signal was analyzed by integration.

Row | stability in neutral and basic pH ([2]; 50 mM Tris pH 7.4, 50 mM Tris pH 8.5, 50 mM TEAB pH 11.0, 3 mM compound, 48 h) | hydrolysis ([2]; pH 2 (0.1% TFA), 3 mM compound, TPPO internal standard) | hydrolysis of the starting material ([2]; pH 3.5 (50 mM NaOAc), 3 mM compound, 10% D2O, TPPO internal standard, 48 h) | SMILES | consumption of starting material to glutathione adduct, pH 7.4 [1] | consumption of starting material to glutathione adduct, pH 8.5 [1] | stability at all tested pH values ([2]; pH 2, pH 3.5, pH 7.4, pH 8.5 and pH 11, 3 mM compound, 48 h)
1 | good stability in neutral and basic pH | already hydrolyzed in a few minutes | about 80% | C#CP(=O)(O)Nc1ccc(CCNC(=O)CCCC[C@@H]2SC[C@@H]3NC(=O)N[C@@H]32)cc1 [SM-PN, N-(4-(2-biotinamidoethyl)phenyl)-P-ethynylphosphonamidic acid] | no consumption of the starting material to a glutathione adduct was observed | no consumption of the starting material to a glutathione adduct was observed | –
2 | – | – | – | C#CP(=O)(O)Oc1ccc(CCNC(=O)CCCC[C@@H]2SC[C@@H]3NC(=O)N[C@@H]32)cc1 [SM-PO, 4-(2-biotinamidoethyl)phenyl ethynylphosphonic acid monoester] | no consumption of the starting material to a glutathione adduct was observed | no consumption of the starting material to a glutathione adduct was observed | excellent stability in all tested pH values
